pIC50: −log10 of the molar value.
Target: Protein-arginine deiminase type-4 (Homo sapiens, UniProt Q9UM07)
Test: RFMS2 Assay
Description: Final Assay Conditions:Total reaction volume: 25 μlAssay buffer: […] pH 7.4, 200 mM NaCl, 2 mM CaCl2, 5 mM DTT35 nM recombinant human PAD4500 μM TSTGGRQGSHH peptide1.2% DMSOStop solution: 10% formic acidReaction mixtures were incubated at room temperature for 30 minutes. 10 μl each of the reaction mixtures was then mixed with 40 μl of 10% formic acid in a microtiter plate. The plate was frozen at −80° C. before shipping out on dry ice for RapidFire mass spectroscopy analysis.Thawed samples were loaded onto the Rapid Fire 300 system (Agilent) wherein they were first sipped for 250 ms and then loaded onto a Agilent “C” (C18) cartridge using a mobile phase of water containing 0.09% formic acid/0.01% trifluoroacetic acid for 3000 ms desalting flowing at a rate of 1.5 ml/min. Once the samples were loaded and washed, a mobile phase of acetonitrile containing 0.09% formic acid/0.01% trifluoroacetic acid was used to elute the samples directly onto a Sciex API4000 triple quadrupole mass spectrometer for 3000 ms at a flow rate of 1.25 ml/min.

Chain of Protein-arginine deiminase type-4 (Q9UM07 whole entry): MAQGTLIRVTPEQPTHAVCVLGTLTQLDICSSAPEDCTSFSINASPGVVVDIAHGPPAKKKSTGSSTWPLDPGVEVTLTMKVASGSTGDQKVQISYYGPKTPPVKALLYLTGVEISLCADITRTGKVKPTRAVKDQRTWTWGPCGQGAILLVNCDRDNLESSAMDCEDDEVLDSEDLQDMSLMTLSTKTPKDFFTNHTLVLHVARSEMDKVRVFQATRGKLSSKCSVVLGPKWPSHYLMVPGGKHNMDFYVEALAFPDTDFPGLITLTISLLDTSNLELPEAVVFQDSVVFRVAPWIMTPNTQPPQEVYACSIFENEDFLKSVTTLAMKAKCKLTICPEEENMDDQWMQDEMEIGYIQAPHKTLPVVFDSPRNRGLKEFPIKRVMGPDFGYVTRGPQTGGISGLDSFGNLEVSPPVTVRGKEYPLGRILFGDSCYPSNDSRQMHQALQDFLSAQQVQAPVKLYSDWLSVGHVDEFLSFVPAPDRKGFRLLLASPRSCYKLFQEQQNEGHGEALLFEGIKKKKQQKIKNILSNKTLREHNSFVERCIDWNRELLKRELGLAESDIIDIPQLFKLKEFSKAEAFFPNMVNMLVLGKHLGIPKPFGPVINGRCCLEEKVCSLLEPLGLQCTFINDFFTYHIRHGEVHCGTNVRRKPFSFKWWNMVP

pIC50: < 6.00
Compound: COc1cccc2cc(-c3nc4cc5c(cc4n3C)CCN(C[C@H](N)CF)C5=O)n(CC(=O)N(C)C)c12 [US20250346592, Example 122]

Reference: BindingDB's records for patent US20250346592 (Celgene, 2025)
